The subject of one assay is HCT116. As to the kind of experiment: MTs growth inhibition assay, HCT116. Format: cell-based. As to conditions: Homo sapiens, HCT-116; Wnt/β-catenin-hyperactive, 72 h; read-out: MTs IC50 ± SD HCT116. The protocol:
(§1) MTs cancer cell growth inhibition assays were conducted for 4 and 5. Three cancer cell lines with hyperactive Wnt/β-catenin signaling, SW480, HCT116, and MDA-MB-231. MTs cell viability assay. Colorectal cancer cell lines, SW480 and HCT116, and triple-negative breast cancer cell line MDA-MB-231 were seeded in 96-well plates at 4×10^3 cells/well, maintained overnight at 37° C., and incubated in the presence of 4 and 5 at various concentrations. Cell viability was monitored after 72 h using a freshly prepared mixture of 1 part phenazine methosulfate (PMS, Sigma) solution (0.92 mg/mL) and 19 parts 3-(4,5-dimethylthiazol-2-yl)-5-(3-carboxymethoxyphenyl)-2-(4-sulfophenyl)-2H-tetrazolium (MTs, Promega) solution (2 mg/mL). Cells were incubated in 10 μL of this solution at 37° C. for 3 h, and A490 was measured. The effect of each compound is expressed as the concentration required to reduce A490 by 50% (IC50) relative to vehicle-treated cells. Experiments were performed in triplicate.

The target in a further assay is T1, β-catenin/BCL9 (Homo sapiens, UniProt P35222).
T1 construct: Full-length β-catenin and (residues 1-781) were cloned into a pET-28b vector carrying a C-terminal 6× histidine; made in house; host or cells: E. coli BL21 DE3
T1 sequence (P35222 1-781): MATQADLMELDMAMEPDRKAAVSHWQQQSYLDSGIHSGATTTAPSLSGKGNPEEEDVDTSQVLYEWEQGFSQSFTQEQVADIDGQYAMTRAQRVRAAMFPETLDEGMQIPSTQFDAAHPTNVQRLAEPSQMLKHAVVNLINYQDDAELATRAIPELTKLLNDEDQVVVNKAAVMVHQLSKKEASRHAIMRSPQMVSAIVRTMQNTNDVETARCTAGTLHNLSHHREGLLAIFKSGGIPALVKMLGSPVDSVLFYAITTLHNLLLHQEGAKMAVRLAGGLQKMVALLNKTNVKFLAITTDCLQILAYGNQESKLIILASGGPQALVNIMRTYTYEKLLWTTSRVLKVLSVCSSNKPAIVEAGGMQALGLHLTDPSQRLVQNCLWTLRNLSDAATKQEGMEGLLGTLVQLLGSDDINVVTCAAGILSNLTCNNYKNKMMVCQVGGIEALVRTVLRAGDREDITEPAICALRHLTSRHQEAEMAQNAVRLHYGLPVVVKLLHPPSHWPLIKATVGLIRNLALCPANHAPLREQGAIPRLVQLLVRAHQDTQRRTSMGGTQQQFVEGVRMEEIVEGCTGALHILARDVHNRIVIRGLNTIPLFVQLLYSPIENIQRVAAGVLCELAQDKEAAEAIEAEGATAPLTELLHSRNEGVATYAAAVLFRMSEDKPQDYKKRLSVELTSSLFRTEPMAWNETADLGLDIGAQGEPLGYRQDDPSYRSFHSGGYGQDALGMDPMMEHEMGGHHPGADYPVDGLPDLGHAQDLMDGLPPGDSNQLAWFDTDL
As to the kind of experiment: AlphaScreen competitive inhibition assay, β-catenin/BCL9 PPI. As to conditions: for Ki: AlphaScreen. Format: binding. From the text: The biochemical AlphaScreen assay was employed to evaluate the inhibitory potency of these two final products for disruption of the β-catenin/BCL9 PPI.
BCL9 peptide synthesis and purification. Human BCL9 (residues 350-375), N-terminally biotinylated human BCL9 (residues 350-375), human E-cadherin (residues 824-877), and N-terminally biotinylated human E-cadherin (residues 824-877) were synthesized by InnoPep Inc. (San Diego, Calif., www.innopep.com). All synthesized peptides were purified by HPLC with purity >95%. The structures were validated by LC/MS. The sequences are as follows (Ahx, 6-aminohexanoic acid).
For the β-catenin/BCL9 assay, 5 nM of biotinylated BCL9 and 40 nM of His6-tagged β-catenin were incubated in assay buffer at 4° C. for 30 min. For the β-catenin/E-cadherin assay, 10 nM of biotinylated human E-cadherin, and 40 nM of His6-tagged human β-catenin were added and incubated in assay buffer at 4° C. for 30 min. Different concentrations of the tested peptide or inhibitor were added and incubated in 20 μL assay buffer at 4° C. for another 1.5 h. All of the above assay plates were covered and gently mixed on an orbital shaker. The donor and acceptor beads were then added to the plates to a final concentration of 10 μg/mL in 25 μL assay buffer. The mixture was incubated for 1 h at 4° C. before detection. The IC50 value was determined by nonlinear least-square analysis of GraphPad Prism 5.0. The inhibition constant (Ki) values were derived from the IC50 values using a method reported by Nikolovska-Coleska et al (Nikolovska-Coleska, Z.; Wang, R.; Fang, X.; Pan, H.; Tomita, Y.; Li, P.; Roller, P. P.; Krajewski, K.; Saito, N. G.; Stuckey, J. A.; Wang, S. Development and optimization of a binding assay for the XIAP BIR3 domain using fluorescence polarization, Anal. Biochem. 2004, 332, 261-273.). The assays were conducted under the conditions required by Nikolovska-Coleska et al.'s equation for determining the Ki values. All of the experiments were performed in triplicate. The results were expressed as mean±standard deviation. The inhibitor selectivity for, β-catenin/BCL9 over, β-catenin/E-cahderin interactions was defined as the ratio of the respective Ki value of β-catenin/E-cadherin interactions over that of β-catenin/BCL9 interactions.
For orientation: Bead proximity is the source of the signal in Alpha formats.

For a further assay, the system named is MDA-MB-231. As to the kind of experiment: MTs growth inhibition assay, MDA-MB-231. Format: cell-based. As to conditions: Homo sapiens, Wnt/β-catenin-hyperactive, 72 h, read-out: MTs IC50 ± SD MDA-MB-231. As to the method: as §1
Assay [1] deals with FOPFlash (three mutant Tcf4 binding sites) luciferase reporter. As to the kind of experiment: FOPFlash luciferase reporter assay. Format: cell-based. As to conditions: FIG. 1. As to the method:
Cell transfection and luciferase assay. FuGENE6 (E269A, Promega) 96 well plate format was used for the transfection of HEK293 and SW480 cells according to the manufacturer's instruction. HEK293 cells were co-transfected with 45 ng of TOPFlash or FOPFlash reporter gene, 135 ng pcDNA3.1-β-catenin, and 20 ng of pCMV-RL normalization reporter gene. SW480 cells were co-transfected with 60 ng of the TOPFlash or FOPFlash reporter gene and 40 ng of pCMV-RL normalization reporter. Cells were cultured in DMEM and 10% FBS at 37° C. for 24 h, and different concentrations of inhibitors or DMSO was added. After 24 h, the luciferase reporter activity was measured using the Dual-Glo system (E2940, Promega). Normalized luciferase activity in response to the treatment with 4 and 5 was compared with that obtained from the cells treated with DMSO. Experiments were performed in triplicate.

Another assay concerns A549. As to the kind of experiment: MTs growth inhibition assay, A549 (Wnt-latent). Format: cell-based. As to conditions: Homo sapiens, read-out: MTs IC50 ± SD A549.

Molecules are shown by their SMILES.

Consider `Cl.Cl.O=C(Nc1ccc(O[C@@H]2CCNC2)c(-c2cccc(-c3nn[nH]n3)c2)c1)c1ccc(O[C@H]2CCNC2)c(-c2ccc(F)c(F)c2)c1` [Compound 4, 3′,4′-difluoro-6-(((S)-pyrrolidin-3-yl)oxy)-N-(6-(((R)-pyrrolidin-3-yl)oxy)-3′-(2H-tetrazol-5-yl)-[1,1′-biphenyl]-3-yl)-[1,1′-biphenyl]-3-carboxamide dihydrochloride], for which the IC50 with HCT116 was 55 ± 7.4 µM; with MDA-MB-231, 73 ± 8.9 µM; with A549 it was greater than 400 µM. The “selectivity for β-catenin/BCL9 over β-catenin/E-cadherin PPIs (in words)” value on β-catenin/BCL9 (AlphaScreen biochemical assay) is “exceptionally high selectivity”. Also, the Ki at β-catenin/BCL9 (Table 1, mean ± SD (n = 3)) came out at 0.47 ± 0.14 µM; at β-catenin/BCL9 (Table 2, mean ± SD (n = 3)), 0.47 ± 0.14 µM. Also, the “Selectivity BCL9/cadherin” value at β-catenin/BCL9 (ratio of Ki β-catenin/E-cadherin over Ki β-catenin/BCL9) is given as greater than 1900. For the same compound, the FOPFlash luciferase activity result in assay [1] was “did not inhibit”.

The term IC50 denotes the concentration at which inhibition is half-maximal. As a reminder, the Ki is a measure of affinity in units of concentration, obtained from inhibition or displacement.

The record behind these values is patent US20220411414A1, “INHIBITORS FOR THE B-CATENIN/B-CELL LYMPHOMA 9 (BCL9) PROTEIN-PROTEIN INTERACTION” (H. LEE MOFFITT CANCER CENTER AND RESEARCH INSTITUTE, INC., priority 2018, published 2022).
